SMILES | melting point
C[C@@H](O)c1nccc(N2CCc3c(c(=O)n(-c4cnc5ccccc5n4)n3C)C2)n1 [Example 75, (R)-5-[2-(1-Hydroxy-ethyl)-pyrimidin-4-yl]-1-methyl-2-quinoxalin-2-yl-1,2,4,5,6,7-hexahydro-pyrazolo[4,3-c]pyridin-3-one] | 217 to 219 °C (dec.)
C[C@@H](O)c1nccc(N2CCC(O)(c3ccccc3)CC2)n1 [Example 175, (R)-4-Phenyl-1-[2-(1-hydroxy-ethyl)-pyrimidin-4-yl]-piperidin-4-ol] | 114 °C
C[C@@H](OC(=O)Cc1nn(Cc2nc3cc(C(F)(F)F)ccc3s2)c(=O)c2ccccc12)c1nccc(N2CCN(C(=O)/C=C/c3cccs3)CC2)n1 [Example 276, (E)-[4-Oxo-3-(5-trifluoromethyl-benzothiazol-2-ylmethyl)-3,4-dihydro-phthalazin-1-yl]-acetic acid 1R-{4-[4-(3-thiophen-2-yl-acryloyl)-piperazin-1-yl]-pyrimidin-2-yl}-ethyl ester] | 105 to 109 °C
C[C@@H](O)c1nccc(N2CCc3nc(-c4ccncc4)ncc3C2)n1 [Example 258] | 144 to 148 °C
C[C@@H](O)c1nccc(N2CCC(=CC(=O)c3ccccc3)CC2)n1 [Example 179] | 44 to 59 °C
COc1nc(CO)nc(N2[C@H](C)CN(c3ccnc([C@@H](C)O)n3)C[C@@H]2C)n1 [Example 236, 1R-{4-[4-(4-Hydroxymethyl-6-methoxy-[1,3,5]triazin-2-yl)-3R,5S-dimethyl-piperazin-1-yl]-pyrimidin-2-yl}-ethanol] | 170 to 171 °C
C[C@@H]1CN(C(=O)/C=C/c2cc3ccccc3o2)C[C@H](C)N1c1ccnc([C@@H](C)O)n1 [Example 130, (E)-3-Benzofuran-2-yl-1-{4-[2-(1R-hydroxy-ethyl)-pyrimidin-4-yl]-2R,6S-dimethyl-piperazin-1-yl}-propenone] | 80 to 82 °C
C[C@@H](O)c1nccc(N2CCN(Cc3ccccn3)CC2)n1 [Example 182, (R)-1-[4-(4-Pyridin-2-ylmethyl-piperazin-1-yl)-pyrimidin-2-yl]-ethanol] | 68 to 70 °C
C[C@@H]1CN(c2ccnc([C@@H](C)O)n2)C[C@H](C)N1c1ccnc(N2CCN(C)CC2)n1 [Example 208, 1R-(4-{3R,5S-Dimethyl-4-[2-(4-methyl-piperazin-1-yl)-pyrimidin-4-yl]-piperazin-1-yl}-pyrimidin-2-yl)-ethanol] | 181 to 182 °C
C[C@@H](O)c1nccc(N2CCN(c3ccnc([C@@H](C)O)n3)[C@@H](C)C2)n1 [Example 38, 1R-(4-{4-[2-(1R-Hydroxy-ethyl)-pyrimidin-4-yl]-2S-methyl-piperazin-1-yl}-pyrimidin-2-yl)-ethanol] | 158 to 160 °C
C[C@@H](O)c1nccc(N2C[C@@H]3C[C@H]2CN3S(=O)(=O)c2ccc(Cl)cc2)n1 [Example 115] | 83 to 88 °C
Cc1cc(C)nc(N2[C@H](C)CN(c3ccnc([C@@H](C)O)n3)C[C@@H]2C)n1 [Example 66, 1R-{4-[4-(4,6-Dimethyl-pyrimidin-2-yl)-3R,5S-dimethyl-piperazin-1-yl]-pyrimidin-2-yl}-ethanol] | 141.5 to 142.5 °C
Cc1cc(C)nc(N2C[C@@H](C)N(c3ccnc([C@@H](C)O)n3)[C@@H](C)C2)n1 [Example 27, 1R-{4-[4-(4,6-Dimethyl-pyrimidin-2-yl)-2R,6S-dimethyl-piperazin-1-yl]-pyrimidin-2-yl}-ethanol] | 150.5 to 152 °C
C[C@@H](O)c1nccc(N2CCn3c(nnc3-c3nc4ccccc4s3)C2)n1 [Example 259, (R)-1-[4-(3-Benzothiazol-2-yl-5,6-dihydro-8H-[1,2,4]triazolo[4,3-a]pyrazin-7-yl)-pyrimidin-2-yl]-ethanol] | 216.5 to 218.5 °C
CC(=O)c1nccc(N2C[C@@H](C)N(c3ccnc(C(C)=O)n3)[C@@H](C)C2)n1 [Example 63, 1-{4-[4-(2-Acetyl-pyrimidin-4-yl)-2R*,6S*-dimethyl-piperazin-1-yl]-pyrimidin-2-yl}-ethanone] | > 235 °C (dec.)
C[C@@H](O)c1nccc(N2C[C@@H]3C[C@H]2CN3S(=O)(=O)N(C)C)n1 [Example 120] | 110 to 111 °C
CC(=O)c1nccc(N2[C@H](C)CN(c3ccnc([C@@H](C)O)n3)C[C@@H]2C)n1 [Example 45, 1-(4-{4-[2-(1R-Hydroxy-ethyl)-pyrimidin-4-yl]-2R,6S-dimethyl-piperazin-1-yl}-pyrimidin-2-yl)-ethanone] | 123 to 127 °C
C[C@@H](OC(=O)Cc1nn(Cc2nc3cc(C(F)(F)F)ccc3s2)c(=O)c2ccccc12)c1nccc(N2CCN(c3cnc4ccccc4n3)CC2)n1 [Example 277, (E)-[4-Oxo-3-(5-trifluoromethyl-benzothiazol-2-ylmethyl)-3,4-dihydro-phthalazin-1-yl]-acetic acid 1R-[4-(4-quinoxalin-2-yl-piperazin-1-yl)-pyrimidin-2-yl]-ethyl ester] | 108 to 112 °C
C[C@@H](O)c1nccc(N2CCn3c(nnc3-c3ccc(-c4ccccc4)cc3)C2)n1 [Example 263] | 123 to 125 °C
C[C@@H](O)c1nccc(N2CCC(C3CCN(c4ccnc([C@@H](C)O)n4)CC3)CC2)n1 [Example 3, 1R-(4-{1′-[2-(1R-Hydroxy-ethyl)-pyrimidin-4-yl]-[4,4′]bipiperidinyl-1-yl}-pyrimidin-2-yl)-ethanol] | 144 to 153 °C

SMILES | melting point
C[C@@H]1CN(c2ccnc([C@@H](C)O)n2)C[C@H](C)N1C(=O)c1cc2cnccc2o1 [Example 132, Furo[3,2-c]pyridin-2-yl-{4-[2-(1R-hydroxy-ethyl)-pyrimidin-4-yl]-2R,6S-dimethyl-piperazin-1-yl}-methanone] | 142 to 143 °C
Cc1nc2c(c(N3CCc4ccccc43)n1)CCN(c1ccnc([C@@H](C)O)n1)C2 [Example 99] | 128 to 131 °C
Cc1nc2c(c(-c3ccccc3)n1)CCN(c1ccnc([C@@H](C)O)n1)C2 [Example 86, (R)-1-[4-(2-Methyl-4-phenyl-5,8-dihydro-6H-pyrido[3,4-d]pyrimidin-7-yl)-pyrimidin-2-yl]ethanol] | 114 to 116 °C
C[C@@H](O)c1nccc(N2CCC(=C(c3ccccc3)c3ccccn3)CC2)n1 [Example 181] | 98 to 101 °C
C[C@@H]1CN(c2ccnc([C@@H](C)O)n2)[C@@H](C)CN1c1ccnc([C@@H](C)O)n1 [Example 4, 1R-(4-{4-[2-(1R-Hydroxy-ethyl)-pyrimidin-4-yl]-2R,S-dimethyl-piperazin-1-yl}-pyrimidin-2-yl)-ethanol] | 153 to 155 °C
C[C@@H]1CN(c2nc3cccnc3o2)C[C@H](C)N1c1ccnc([C@@H](C)O)n1 [Example 33, 1R-[4-(2R,6S-Dimethyl-4-oxazolo[5,4-b]pyridin-2-yl-piperazin-1-yl)-pyrimidin-2-yl]-ethanol] | 204 to 207 °C
Cc1nc2c(c(Sc3ccccc3)n1)CCN(c1ccnc([C@@H](C)O)n1)C2 [Example 98] | 103 to 105 °C
COc1nc(OC)nc(N2[C@H](C)CN(c3ccnc([C@@H](C)O)n3)C[C@@H]2C)n1 [Example 214, 1R-{4-[4-(4,6-Dimethoxy-[1,3,5]triazin-2-yl)-3R,5S-dimethyl-piperazin-1-yl]-pyrimidin-2-yl}-ethanol] | 187 to 188 °C
C[C@@H](O)c1nccc(N2CCc3nc(C(F)(F)F)ncc3C2)n1 [Example 255] | 130 to 132 °C
C[C@@H](O)c1nccc(N2C[C@H]3CCC[C@@H](C2)N3c2ccnc([C@@H](C)O)n2)n1 (stereo in doubt) | 151 to 158 °C
C[C@@H]1CN(c2ncnc(N3CCOCC3)n2)C[C@H](C)N1c1ccnc([C@@H](C)O)n1 [Example 212, 1R-{4-[2R,6S-Dimethyl-4-(4-morpholino-4-yl-[1,3,5]triazin-2-yl)-piperazin-1-yl]-pyrimidin-2-yl}-ethanol] | 78 to 82 °C
C[C@@H]1CN(c2ccnc(N3CCN(C)CC3)n2)C[C@H](C)N1c1ccnc([C@@H](C)O)n1 [Example 202, 1R-(4-{2R,6S-Dimethyl-4-[2-(4-methyl-piperazin-1-yl)-pyrimidin-4-yl]-piperazin-1-yl}-pyrimidin-2-yl)-ethanol] | 60 to 70 °C
C[C@@H](O)c1nccc(N2CCN(c3ccnc(CO)n3)[C@@H](C)C2)n1 [Example 37, 1R-{4-[4-(2-Hydroxymethyl-pyrimidin-4-yl)-3S-methyl-piperazin-1-yl]-pyrimidin-2-yl}-ethanol] | 178 to 181 °C
C[C@@H]1CN(c2ccnc([C@@H](C)O)n2)C[C@H](C)N1C(=O)CSc1ncccn1 [Example 160, 1-{4-[2-(1R-Hydroxy-ethyl)-pyrimidin-4-yl]-2R,6S-dimethyl-piperazin-1-yl}-2-(pyrimidin-2-ylsulfanyl)-ethanone] | 60 to 70 °C
C[C@@H](O)c1nccc(N2CCc3c(nc(N)nc3-c3ccccc3)C2)n1 [Example 90] | 225 to 228 °C (dec.)
C[C@@H]1CN(c2ccnc([C@@H](C)O)n2)CCN1c1ccnc([C@@H](C)O)n1 [Example 39, 1R-(4-{4-[2-(1R-Hydroxy-ethyl)-pyrimidin-4-yl]-2R-methyl-piperazin-1-yl}-pyrimidin-2-yl)-ethanol] | 155 to 157 °C
Cc1nc(C)nc(N2[C@H](C)CN(c3ccnc([C@@H](C)O)n3)C[C@@H]2C)n1 [Example 242, 1R-{4-[4-(4,6-Dimethyl-[1,3,5]triazin-2-yl)-3R,5S-dimethyl-piperazin-1-yl]-pyrimidin-2-yl}-ethanol] | 157 to 159 °C
C[C@@H]1CN(c2ccnc(-c3cccnc3)n2)C[C@H](C)N1c1ccnc([C@@H](C)O)n1 [Example 201, 1R-{4-[2R,6S-Dimethyl-4-(2-pyridin-3-yl-pyrimidin-4-yl)-piperazin-1-yl]-pyrimidin-2-yl}-ethanol] | 61 to 70 °C
C[C@@H]1CN(c2ccnc(C(C)(C)O)n2)C[C@H](C)N1c1ccnc([C@@H](C)O)n1 [Example 34, 2-(4-{4-[2-(1R-Hydroxy-ethyl)-pyrimidin-4-yl]-3R,5S-dimethyl-piperazin-1-yl}-pyrimidin-2-yl)-propan-2-ol] | 138 to 140 °C
Cc1nc2c(c(Oc3ccccc3)n1)CCN(c1ccnc([C@@H](C)O)n1)C2 [Example 97] | 156 to 158 °C

Reference: patent US6936600B2, “Sorbitol dehrydrogenase inhibitors” (Pfizer Inc, priority 1999, dated 2005)
